Columns and labels:
human LPAR2 = biological target: T1, human LPAR2 (Homo sapiens, UniProt Q9HBW0); test: LPA-induced calcium mobilization in transiently transfected HEK293T cells; type: cell-based; conditions: 3 h preincubation; LPA at EC80 5 µM
T1 construct: host or cells: HEK293T
Experimental: (§1) We had previously assessed selectivity against LPAR2 and 3 [11]. […] Human LPAR1-6 plasmids were each transiently transfected into HEK293T cells and the EC80 (effective concentration producing 80% maximal effect) for LPA activation empirically determined. Selectivity was then tested in a concentration response paradigm using a 3 h preincubation followed by LPA-induced calcium mobilization.
(§2) Plasmids containing human LPAR1-6 were obtained from Origene (Rockville, MD) and maxiprepped at Eton Biosciences (San Diego, CA). Transfection mix was prepared by adding Fugene 6 transfection mix to serum free media and 0.1 µg plasmid. After a 20 m incubation, HEK293T cells (ATCC, Manassas VA) were lifted with Accutase and added to the Fugene mix at a final concentration of 0.5 × 10^4 cells/well. Cells were then plated on black clear bottom 96-well plates and incubated overnight in a 37 °C, 5% CO2 incubator. […] During the last hour of incubation, media was removed and replaced with Fluo-4 NW calcium assay dye prepared as per manufacturer’s recommendations in assay buffer. Agonist plates containing LPA were prepared for individual receptor subytpes using their respective EC80. Calcium mobilization was measured as per manufacturer’s directions on a Flexstation 3 (Molecular Devices, San Jose, CA).

human LPAR3 = biological target: T2, human LPAR3 (Homo sapiens, UniProt Q9UBY5); test: as above; type: cell-based; conditions: 3 h preincubation; LPA at EC80 10 µM
T2 construct: host or cells: HEK293T
T2 sequence (Q9UBY5 1-353): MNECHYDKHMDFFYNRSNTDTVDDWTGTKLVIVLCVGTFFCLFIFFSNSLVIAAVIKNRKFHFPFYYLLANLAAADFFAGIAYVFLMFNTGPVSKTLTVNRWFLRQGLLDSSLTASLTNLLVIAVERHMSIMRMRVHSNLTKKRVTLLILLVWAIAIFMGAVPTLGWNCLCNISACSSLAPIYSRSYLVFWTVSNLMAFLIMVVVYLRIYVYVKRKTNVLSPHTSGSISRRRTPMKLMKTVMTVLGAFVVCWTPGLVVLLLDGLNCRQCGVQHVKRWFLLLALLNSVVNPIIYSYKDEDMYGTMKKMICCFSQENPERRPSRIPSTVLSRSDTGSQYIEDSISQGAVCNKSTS
Experimental: as §1, §2

human LPAR4 = biological target: T3, human LPAR4 (Homo sapiens, UniProt Q99677); test: as above; type: cell-based; conditions: 3 h preincubation; LPA at EC80 10 µM
T3 construct: host or cells: HEK293T
Experimental: as §1, §2

human LPAR5 = biological target: T4, human LPAR5 (Homo sapiens, UniProt Q9H1C0); test: as above; type: cell-based; conditions: 3 h preincubation; LPA at EC80 1 µM
T4 construct: host or cells: HEK293T
Experimental: as §1, §2

human LPAR6 = biological target: T5, human LPAR6 (Homo sapiens, UniProt P43657); test: as above; type: cell-based; conditions: 3 h preincubation; LPA at EC80 13 µM
T5 construct: host or cells: HEK293T
T5 sequence (P43657 1-344): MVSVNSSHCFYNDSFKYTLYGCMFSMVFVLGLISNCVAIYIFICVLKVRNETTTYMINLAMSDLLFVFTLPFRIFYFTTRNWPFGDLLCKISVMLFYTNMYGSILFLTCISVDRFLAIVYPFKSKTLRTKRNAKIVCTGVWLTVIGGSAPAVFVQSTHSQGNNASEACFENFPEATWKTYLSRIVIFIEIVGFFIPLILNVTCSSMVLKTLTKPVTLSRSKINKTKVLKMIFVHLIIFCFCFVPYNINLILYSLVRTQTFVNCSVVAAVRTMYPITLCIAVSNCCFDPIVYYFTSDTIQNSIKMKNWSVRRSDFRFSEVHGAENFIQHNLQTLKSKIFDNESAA
Experimental: as §1, §2

[1] = system: primary human lung fibroblasts; test: LPA-induced COL1A1 expression (immunocytochemistry); type: cell-based; conditions: 1 µM LPA 8 h; compound overnight; read-out: IC50 inhibition of COL1A1 expression
Experimental: COL1A1 assay: Primary human lung fibroblasts were plated in a 96-well plate and allowed to adhere. […] The next day, cells were treated with 1 µM LPA and incubated for 8 h. After incubation in LPA, cells were immunostained for COL1A1. Cells were fixed in formalin for 10 min, washed 3 x with PBS, incubated in collagen 1A1 antibody (1:250 in blocking buffer, 0.1% Triton X-100 in PBS, 2 h), and washed 3 x with PBS. Secondary antibody solution (1:500) and Hoechst (1:2000) were added for 1 h, washed 3 x in PBS then imaged on a Nikon A1R confocal microscope at 10x magnification except human lung fibroblasts which were imaged at 4x. Collagen area was quantified with ImageJ and normalized to Hoechst per image.

[2] = system: primary human lung fibroblasts; test: TGFβ1- or LPA-induced myofibroblast transformation (αSMA, COL1A1); type: cell-based; conditions: PIPE-791 1 µM
Experimental: TGFβ1 was used at 5 ng/mL. In addition to COL1A1 immunostaining, cells were co-immunostained with aSMA followed by a goat anti-rabbit Alexa647 secondary antibody.

[3] = Plasma protein binding (fraction unbound); type: in vitro ADME; conditions: rat plasma
[4] = system: LPA-induced mast cell histamine release; test: In vivo LPA-induced histamine release; set-up: species or system mouse
Experimental: Female CD-1 mice (Envigo) were allowed to acclimate for ~ 1 week. Animals were subject to a 12 h light – 12 h dark cycle. Mice were multi-housed in Innorack IVC mouse racks (Innovive, San Diego, CA) with access to water and standard rodent chow ad libitum. […] Three hours or 24 h after a single dose or after the last of 4 repeated administrations, 150 µL FAF-PBS/BSA (Control) or LPA (300 µg in 150 µL) was administered IV via the lateral tail vein and mice were immediately placed into an isoflurane chamber. Two minutes later, mice were euthanized by decapitation and trunk blood collected into K3EDTA tubes and stored on wet ice until processing to plasma (1450 x g, 10 min, 4 °C). Plasma was aliquoted into two 96-well polypropylene plates and transferred to −80 °C for storage until analysis for histamine by EIA.

[5] = system: mouse alveolar macrophages; test: IL-1β release of alveolar macrophages from orally dosed mice, ex vivo LPS; type: in vivo; conditions: 3 mg/kg oral, 24 h before isolation; with and without ex vivo LPS
Experimental: 1.5 mL DPBS was injected into lungs and BAL fluid aspirated. Cells were plated in at 40,000 cells/well and stimulated first with 500 ng/mL LPS for 4 h then and 1 µM LPA for an additional hour at 37 °C. Plates were spun down and supernatant analyzed for IL-1β by ELISA.

[6] = system: human precision cut lung slices from donors with pulmonary fibrosis; test: Fibrotic marker mRNA (qPCR) in cryopreserved PCLS from donors with pulmonary fibrosis; type: cell-based; conditions: PIPE-791, 6 days, 6 donors
[7] = set-up: method as in NCT05983939; conditions: Phase I; ref NCT05983939; cited from earlier work

T3 sequence (Q99677 whole entry): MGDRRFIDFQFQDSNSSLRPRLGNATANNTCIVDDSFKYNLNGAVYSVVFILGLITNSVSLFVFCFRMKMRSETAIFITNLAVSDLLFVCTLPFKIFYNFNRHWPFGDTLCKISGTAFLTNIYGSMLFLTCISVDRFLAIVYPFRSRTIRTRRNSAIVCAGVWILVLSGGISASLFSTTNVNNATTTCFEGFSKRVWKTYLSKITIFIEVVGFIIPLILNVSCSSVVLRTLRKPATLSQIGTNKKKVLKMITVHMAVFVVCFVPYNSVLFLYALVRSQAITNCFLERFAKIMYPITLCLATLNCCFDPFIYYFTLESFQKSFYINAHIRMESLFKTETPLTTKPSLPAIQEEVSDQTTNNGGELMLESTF
T4 sequence (Q9H1C0 whole entry): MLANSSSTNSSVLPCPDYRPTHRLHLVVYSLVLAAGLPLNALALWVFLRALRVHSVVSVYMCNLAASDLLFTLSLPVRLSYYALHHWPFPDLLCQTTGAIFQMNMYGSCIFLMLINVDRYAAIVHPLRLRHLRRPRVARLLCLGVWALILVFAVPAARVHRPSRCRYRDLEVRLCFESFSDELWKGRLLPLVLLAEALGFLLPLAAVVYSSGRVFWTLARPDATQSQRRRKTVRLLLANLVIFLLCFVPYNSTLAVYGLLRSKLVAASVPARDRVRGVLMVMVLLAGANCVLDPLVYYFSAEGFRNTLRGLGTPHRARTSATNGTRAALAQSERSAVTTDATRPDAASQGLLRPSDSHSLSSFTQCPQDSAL
T1 sequence (Q9HBW0 whole entry): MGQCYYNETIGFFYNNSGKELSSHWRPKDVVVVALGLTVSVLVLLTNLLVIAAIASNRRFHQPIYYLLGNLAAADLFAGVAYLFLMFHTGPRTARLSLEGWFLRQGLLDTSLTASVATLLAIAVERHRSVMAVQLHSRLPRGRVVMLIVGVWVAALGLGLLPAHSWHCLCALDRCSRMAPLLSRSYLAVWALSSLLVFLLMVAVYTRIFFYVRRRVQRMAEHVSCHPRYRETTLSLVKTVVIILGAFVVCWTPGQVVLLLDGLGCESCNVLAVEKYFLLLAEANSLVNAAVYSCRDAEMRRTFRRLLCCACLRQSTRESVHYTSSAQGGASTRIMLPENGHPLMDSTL

Work on `COc1ccc(NC(=O)N(c2ccccc2C(C)C)C2CCC(C(=O)O)CC2)c(OC(F)F)n1` (centres unmarked) [PIPE-791] yielded an IC50 (human LPAR2) of 463 nM, an IC50 (human LPAR3) of 398 nM and an IC50 (human LPAR4) of 607 nM. For the same molecule, the IC50 (human LPAR5) was 114 nM, the IC50 (human LPAR6) was 805 nM and the IC50 [1] was 1.1 nM. The COL1A1 induction ([2]; LPA stimulation) was “significantly inhibited”, the αSMA expression ([2]; LPA stimulation) was “significantly inhibited” and the COL1A1 induction ([2]; TGFβ1 stimulation) was “significantly inhibited”. For the same molecule, the αSMA expression ([2]; TGFβ1 stimulation) was “significantly inhibited”, the plasma fraction unbound [3] was 0.057 and the “blockade of LPA-induced histamine release” value (“blockade” below) ([4]; oral, 4 consecutive days (steady state), LPA 3 or 24 h after final dose) was “significant efficacy at 0.3 and 3 mg/kg was observed at both timepoints”. The “blockade” value ([4]; single oral dose 0.3 mg/kg, LPA challenge 3 or 24 h later) was “significance was observed at 24 h but not at 3 h”, the “blockade” value ([4]; single oral dose 3 mg/kg, LPA challenge 3 or 24 h later) was “significant blockade of histamine release” and the “IL-1β levels of isolated alveolar macrophages” value [5] was “comparable to baseline”. For the same molecule, the “slice health as measured by LDH in the media” value [6] was “no significant effect on slice health” and the safety and tolerability [7] was “safe and well-tolerated”.

From publication PMC12400753 (Respiratory Research, 2025)
